In BindingDB's records for doi:10.7270/Q28C9TSJ (Nmmlsc, 2011):

Biological target: T1, Multidrug resistance protein CDR2 (Candida albicans (strain SC5314 / ATCC MYA-2876), UniProt P78595)
T1 sequence (P78595 whole entry): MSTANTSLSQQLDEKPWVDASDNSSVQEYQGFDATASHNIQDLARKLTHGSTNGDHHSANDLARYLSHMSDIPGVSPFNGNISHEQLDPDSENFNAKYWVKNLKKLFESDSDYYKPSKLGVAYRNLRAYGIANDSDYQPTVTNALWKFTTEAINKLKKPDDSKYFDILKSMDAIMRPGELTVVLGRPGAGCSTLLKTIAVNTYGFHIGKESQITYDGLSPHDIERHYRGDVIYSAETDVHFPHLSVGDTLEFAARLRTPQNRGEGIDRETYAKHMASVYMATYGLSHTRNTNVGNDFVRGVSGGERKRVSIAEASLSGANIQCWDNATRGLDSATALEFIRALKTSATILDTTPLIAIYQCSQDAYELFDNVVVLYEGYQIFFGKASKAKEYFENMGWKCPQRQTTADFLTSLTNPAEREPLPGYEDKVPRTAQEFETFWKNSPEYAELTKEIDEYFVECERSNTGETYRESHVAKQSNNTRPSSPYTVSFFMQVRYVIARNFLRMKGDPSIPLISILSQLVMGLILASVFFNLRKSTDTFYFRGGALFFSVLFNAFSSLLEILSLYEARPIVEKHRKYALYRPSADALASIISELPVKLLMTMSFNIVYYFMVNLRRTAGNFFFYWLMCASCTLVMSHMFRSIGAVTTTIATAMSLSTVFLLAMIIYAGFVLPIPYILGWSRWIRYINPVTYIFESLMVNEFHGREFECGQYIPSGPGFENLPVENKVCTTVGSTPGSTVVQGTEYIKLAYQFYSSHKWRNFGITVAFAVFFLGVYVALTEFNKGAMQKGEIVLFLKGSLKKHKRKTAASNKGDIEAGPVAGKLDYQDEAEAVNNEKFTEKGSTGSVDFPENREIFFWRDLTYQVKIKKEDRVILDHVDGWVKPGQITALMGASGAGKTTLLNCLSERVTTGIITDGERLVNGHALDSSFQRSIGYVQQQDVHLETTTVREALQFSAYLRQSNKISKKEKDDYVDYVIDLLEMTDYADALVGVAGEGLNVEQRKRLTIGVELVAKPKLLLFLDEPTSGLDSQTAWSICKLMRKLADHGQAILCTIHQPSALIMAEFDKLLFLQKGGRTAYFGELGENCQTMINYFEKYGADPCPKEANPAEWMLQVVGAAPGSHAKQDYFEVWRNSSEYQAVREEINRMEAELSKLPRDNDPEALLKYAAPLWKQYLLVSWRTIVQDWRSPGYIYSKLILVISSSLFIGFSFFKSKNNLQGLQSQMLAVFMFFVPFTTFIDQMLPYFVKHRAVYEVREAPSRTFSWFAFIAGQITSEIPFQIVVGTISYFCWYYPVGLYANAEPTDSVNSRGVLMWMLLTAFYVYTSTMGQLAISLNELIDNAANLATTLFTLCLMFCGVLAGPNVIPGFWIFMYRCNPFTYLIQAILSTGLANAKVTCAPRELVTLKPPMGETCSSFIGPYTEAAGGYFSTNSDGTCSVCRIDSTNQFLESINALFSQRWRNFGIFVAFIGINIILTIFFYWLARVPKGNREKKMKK
Assay: inhibition of Nile Red efflux via Candida CDR2 – S. cerevisiae AD1-8u, singleplex, Cherry Pick1 hits, dose response (AID 588604)

## O=[N+]([O-])c1cc(CN=Nc2ccccn2)ccc1Cl
  EC50: 9.33 µM
